Experimental data taken from the RepoRT retention time repository.

Experiment: RP, Waters ACQUITY Premier BEH C18, 100 × 2.1 mm, 1.7 µm, 40 °C, 0.3 to 0.4 mL/min, estimated dead time 0.73 min; A: water + 0.1% formic acid; B: acetonitrile + 0.1% formic acid; gradient (min/%B) 0/0.5 0.1/0.5 10/80 10.1/99.5 12/0.5 12.1/0.5 14.5/0.5
Conditions: stereoisomer not certain

**Q.** With `CC(C(=O)O)c1ccc(O)cc1` (stereo unspecified) [4-HYDROXYPHENYL-2-PROPIONIC ACID] as the molecule, how does the LC retention time read?
**A.** 5.12 min

**Q.** Which LC retention time does the source give for `Nc1nc2nc[nH]c2c(=O)[nH]1` [GUANINE] here?
**A.** 1.29 min

**Q.** With `O=c1c(-c2ccc(O)cc2)coc2c(C3OC(CO)C(O)C(O)C3O)c(O)ccc12` (stereo unspecified) [PUERARIN] as the molecule, how does the LC retention time read?
**A.** 3.76 min

**Q.** With `O=C(OC1OC2COC(=O)c3cc(O)c(O)c(O)c3-c3c(cc(O)c(O)c3O)C(=O)OC(C2O)C1O)c1cc(O)c(O)c(O)c1` (stereo unspecified) [CORILAGIN] as the molecule, how does the LC retention time read?
**A.** 4.37 min

**Q.** Which LC retention time does the source give for `NC(Cc1ccc(O)cc1)C(=O)O` (stereo unspecified) [TYROSINE] here?
**A.** 2.44 min

**Q.** For `CC1CNC(=O)NC1=O` (stereo unspecified) [DIHYDROTHYMINE], which LC retention time is on record?
**A.** 1.26 min

**Q.** With `Cc1c[nH]c(=O)[nH]c1=O` [THYMINE] as the molecule, how does the LC retention time read?
**A.** 2.99 min

**Q.** Which LC retention time does the source give for `Nc1ncnc2c1ncn2C1OC(CO)C2OP(=O)(O)OC21` (stereo unspecified) [ADENOSINE 2',3'-CYCLIC PHOSPHATE] here?
**A.** 2.8 min

**Q.** For `COc1ccccc1C=CC=O` [CASSIASTEAROPTENE], which LC retention time is on record?
**A.** 7.94 min

**Q.** With `NC(CCSSCCC(N)C(=O)O)C(=O)O` (stereo unspecified) [HOMOCYSTINE] as the molecule, how does the LC retention time read?
**A.** 0.958 min

**Q.** With `CC1C(=O)OC2C(O)C34C5OC(=O)C3(OC3OC(=O)C(O)C34C(C(C)(C)C)C5O)C12O` (stereo unspecified) [GINKGOLIDE C] as the molecule, how does the LC retention time read?
**A.** 4.74 min

**Q.** For `CCCCCCCCCCCCCCC(O)C(=O)O` (stereo unspecified) [2-HYDROXYHEXADECANOIC ACID], which LC retention time is on record?
**A.** 8.98 min

**Q.** With `C=Cc1c(C)c2cc3[nH]c(cc4nc(cc5nc(cc1[nH]2)C(C)=C5CCC(=O)O)C(CCC(=O)O)=C4C)c(C)c3C=C` [PROTOPORPHYRIN] as the molecule, how does the LC retention time read?
**A.** 9.14 min

**Q.** Which LC retention time does the source give for `OCC(O)c1ccc(O)c(O)c1` (stereo unspecified) [3,4-DIHYDROXYPHENYLGLYCOL] here?
**A.** 1.86 min

**Q.** Which LC retention time does the source give for `CN(CC(=O)O)C(=N)N` [CREATINE] here?
**A.** 0.905 min

**Q.** For `O=C(O)CNC(=O)c1cccc(O)c1` [3-HYDROXYHIPPURIC ACID], which LC retention time is on record?
**A.** 3.03 min

**Q.** For `CCNC(=O)CC[C@H](N)C(=O)O` [L-THEANINE], which LC retention time is on record?
**A.** 0.897 min

**Q.** For `Cc1cc(O)c2c(c1)C(=O)c1cc(O)cc(O)c1C2=O` [EMODIN], which LC retention time is on record?
**A.** 7.52 min

**Q.** Which LC retention time does the source give for `CC12CCC(=O)C=C1CCC1C2CCC2(C)C1CCC2(O)C(=O)CO` (stereo unspecified) [CORTEXOLONE] here?
**A.** 6.74 min

**Q.** For `O=C(O)C(O)Cc1ccc(O)cc1` (stereo unspecified) [HYDROXYPHENYLLACTATE], which LC retention time is on record?
**A.** 4.05 min

**Q.** For `CCCCCCCCCC(=O)OC(CC(=O)[O-])C[N+](C)(C)C` (stereo unspecified) [DECANOYLCARNITINE], which LC retention time is on record?
**A.** 6.92 min

**Q.** For `C=C1C(=O)OC2C=C(C)CCC=C(C)CCC12` (stereo unspecified) [COSTUNOLIDE], which LC retention time is on record?
**A.** 7.65 min

**Q.** With `O=C1Cc2ccccc2N1` [1,3-DIHYDRO-(2H)-INDOL-2-ONE] as the molecule, how does the LC retention time read?
**A.** 5.06 min

**Q.** With `CC(=O)NC(CO)C(=O)O` (stereo unspecified) [N-ACETYLSERINE] as the molecule, how does the LC retention time read?
**A.** 1.12 min

**Q.** For `CC(=O)NCCC(=O)O` [N-ACETYL-BETA-ALANINE], which LC retention time is on record?
**A.** 1.03 min

**Q.** Which LC retention time does the source give for `COc1cc(C=CC(=O)CC(=O)C=Cc2ccc(O)c(OC)c2)ccc1O` [CURCUMIN] here?
**A.** 7.18 min

**Q.** Which LC retention time does the source give for `CC(=O)Nc1ccc(OC2OC(C(=O)O)C(O)C(O)C2O)cc1` (stereo unspecified) [4-ACETAMIDOPHENYLGLUCURONIDE] here?
**A.** 1.32 min

**Q.** For `COc1cc2c(c(O)c1C(=O)C=Cc1ccc(O)cc1)C(O)CC(C)(C)O2` (stereo unspecified) [ISOXANTHOHUMOL B], which LC retention time is on record?
**A.** 6.64 min

**Q.** With `CC(=O)OCC(=O)C1CCC2C3CCC4=CC(=O)CCC4(C)C3CCC12C` (stereo unspecified) [DEOXYCORTICOSTERONE ACETATE] as the molecule, how does the LC retention time read?
**A.** 7.64 min

**Q.** With `OCC1OC(Oc2ccc(O)cc2)C(O)C(O)C1O` (stereo unspecified) [ARBUTIN] as the molecule, how does the LC retention time read?
**A.** 1.12 min

**Q.** With `O=C(O)CCCCCCCCCCCO` [OMEGA-HYDROXYDODECANOATE] as the molecule, how does the LC retention time read?
**A.** 6.99 min

**Q.** With `O=C(O)c1cc(O)c2c(c1)C(=O)c1cccc(O)c1C2=O` [RHEIN] as the molecule, how does the LC retention time read?
**A.** 7.07 min

**Q.** With `Nc1ncnc2c1ncn2C1OC(CO)C(O)C1O` (stereo unspecified) [ADENOSINE] as the molecule, how does the LC retention time read?
**A.** 3.28 min

**Q.** Which LC retention time does the source give for `O=C(O)CCc1ccc(O)c(O)c1` [3,4-DIHYDROXYHYDROCINNAMIC ACID] here?
**A.** 4.42 min

**Q.** With `O=c1ccn(C2OC(COP(=O)(O)O)C(O)C2O)c(=O)[nH]1` (stereo unspecified) [URIDINE MONOPHOSPHATE] as the molecule, how does the LC retention time read?
**A.** 1.26 min

**Q.** Which LC retention time does the source give for `CCCCCC(O)CC(=O)CCc1ccc(O)c(OC)c1` (stereo unspecified) [GINGEROL] here?
**A.** 7.34 min

**Q.** With `Nc1ncnc2nc[nH]c12` [ADENINE] as the molecule, how does the LC retention time read?
**A.** 1.3 min

**Q.** For `O=C(O)CCCc1c[nH]c2ccccc12` [3-INDOLEBUTYRIC ACID], which LC retention time is on record?
**A.** 6.25 min

**Q.** With `OCC1OC(OC2C(CO)OC(OC3C(CO)OC(OC4C(CO)OC(O)C(O)C4O)C(O)C3O)C(O)C2O)C(O)C(O)C1O` (stereo unspecified) [MALTOTETRAOSE] as the molecule, how does the LC retention time read?
**A.** 1.07 min

**Q.** Which LC retention time does the source give for `O=C(O)c1c[nH]c(=O)[nH]c1=O` [URACIL 5-CARBOXYLATE] here?
**A.** 1.91 min

**Q.** With `O=C([O-])C(O)Cc1ccc(O)c(O)c1.[Na+]` (stereo unspecified) [3-(3,4-DIHYDROXYPHENYL)LACTIC ACID] as the molecule, how does the LC retention time read?
**A.** 3.74 min

**Q.** For `O=C(O)CCCC(=O)C(=O)O` [OXOADIPATE], which LC retention time is on record?
**A.** 2.2 min

**Q.** For `COc1ccc(-c2cc(=O)c3c(OC)c(OC)c(OC)c(OC)c3o2)cc1OC` [NOBILETIN], which LC retention time is on record?
**A.** 6.99 min

**Q.** With `O=C(O)CCCCCCCCCCCC(=O)O` [1,11-UNDECANEDICARBOXYLATE] as the molecule, how does the LC retention time read?
**A.** 7.11 min

**Q.** Which LC retention time does the source give for `O=c1ccn(C2OC(CO)C(O)C2O)c(=O)[nH]1` (stereo unspecified) [URIDINE] here?
**A.** 2.45 min

**Q.** Which LC retention time does the source give for `O=C(O)CCCCCC(=O)O` [6-CARBOXYHEXANOATE] here?
**A.** 4.46 min

**Q.** With `CCCCCC(N)C(=O)O` (stereo unspecified) [2-AMINOHEPTANOATE] as the molecule, how does the LC retention time read?
**A.** 2.81 min

**Q.** Which LC retention time does the source give for `CCCCCCC(O)CCCCCCCCCCC(=O)O` (stereo unspecified) [12-HYDROXYSTEARIC ACID] here?
**A.** 8.29 min

**Q.** With `O=C(O)CCCCCCCCCCCNC(=O)NC1CCCCC1` [CUDA] as the molecule, how does the LC retention time read?
**A.** 7.47 min

**Q.** With `COc1c(O)cc2oc(-c3ccc(O)cc3)cc(=O)c2c1O` [5,7-DIHYDROXY-2-(4-HYDROXYPHENYL)-6-METHOXY-4H-CHROMEN-4-ONE] as the molecule, how does the LC retention time read?
**A.** 6.08 min

**Q.** Which LC retention time does the source give for `CC1(O)CCOC(=O)C1` (stereo unspecified) [MEVALOLACTONE] here?
**A.** 3.33 min

**Q.** For `O=C(O)CCCCC(=O)O` [ADIPATE], which LC retention time is on record?
**A.** 3.99 min

**Q.** With `O=C(O)C1OC(Oc2c(-c3ccc(O)c(O)c3)oc3cc(O)cc(O)c3c2=O)C(O)C(O)C1O` (stereo unspecified) [QUERCETIN 3-O-GLUCURONIDE] as the molecule, how does the LC retention time read?
**A.** 4.41 min

**Q.** For `O=c1[nH]c(=O)c2ncn(C3OC(CO)C(O)C3O)c2[nH]1` (stereo unspecified) [XANTHOSINE], which LC retention time is on record?
**A.** 3.45 min

**Q.** With `CC1NCCc2cc(O)c(O)cc21` (stereo unspecified) [SALSOLINOL] as the molecule, how does the LC retention time read?
**A.** 2.56 min

**Q.** Which LC retention time does the source give for `O=C(O)C=Cc1c[nH]c2ccccc12` [INDOLEACRYLIC ACID] here?
**A.** 5.61 min

**Q.** With `O=C(O)c1ccnc2ccccc12` [4-QUINOLINECARBOXYLATE] as the molecule, how does the LC retention time read?
**A.** 3.01 min

**Q.** With `C[Se]CCC(N)C(=O)O` (stereo unspecified) [SELENOMETHIONINE] as the molecule, how does the LC retention time read?
**A.** 1.09 min

**Q.** With `CC(=O)NC(Cc1c[nH]c2ccccc12)C(=O)O` (stereo unspecified) [N-ACETYLTRYPTOPHAN] as the molecule, how does the LC retention time read?
**A.** 5.31 min

**Q.** For `CCNC(=O)C1CC(C)CCC1C(C)C` (stereo unspecified) [N-ETHYL-5-METHYL-2-(1-METHYLETHYL)-CYCLOHEXANECARBOXAMIDE], which LC retention time is on record?
**A.** 7.41 min

**Q.** With `Nc1cc(C(=O)O)ccc1O` [3-AMINO-4-HYDROXYBENZOATE] as the molecule, how does the LC retention time read?
**A.** 1.37 min

**Q.** Which LC retention time does the source give for `CCC(CO)C(=O)O` (stereo unspecified) [2-ETHYLHYDRACRYLIC ACID] here?
**A.** 3.81 min

**Q.** With `CC1OC(O)C(O)C(O)C1O` (stereo unspecified) [RHAMNOSE] as the molecule, how does the LC retention time read?
**A.** 0.913 min

**Q.** For `O=C(O)c1cc(=O)c2cccc(O)c2[nH]1` [XANTHURENATE], which LC retention time is on record?
**A.** 3.98 min

**Q.** For `Cn1c(=O)[nH]c(=O)c2c1[nH]c(=O)n2C` [3,7-DIMETHYLURIC ACID], which LC retention time is on record?
**A.** 1.28 min

**Q.** With `NC1CCSC1=O` (stereo unspecified) [HOMOCYSTEINE THIOLACTONE] as the molecule, how does the LC retention time read?
**A.** 0.939 min
